Molecular target: GAL4 DBD (1-147)-CfEcR(DEF)/VP16AD-βRXREF-LmUSPEF (Choristoneura fumiferana, UniProt O77240)
Test: cell-based
Settings: for Fold Induction, 27-63 Assay, 3.3 uM: 3.3 uM ligand; for Fold Induction, 27-63 Assay, 3.3 uM / Fold Induction, 27-63 Assay, 33 uM: RLU ligand treated / RLU DMSO treated cells; for Fold Induction, 27-63 Assay, 3.3 uM / Fold Induction, 27-63 Assay, 33 uM / EC50: average of two wells; for Fold Induction, 27-63 Assay, 33 uM: 33 uM ligand; for 27-63 assay Rel Max FI: maximum fold induction at any concentration relative to that of GS-E ligand, CHO 27-63 cells; for EC50: read-out: 27-63 assay EC50, CHO 27-63 stable cell line, luciferase reporter

Structure (SMILES) | Fold Induction, 27-63 Assay, 3.3 uM | Fold Induction, 27-63 Assay, 33 uM | 27-63 assay Rel Max FI | EC50
CCc1ccc(C(=O)NN(C(=O)c2cc(C)cc(Cl)c2)C(C)(C)C)cc1 [RG-101774] | 1807 | 1359 | 0.795 | 359 nM
CCc1ccc(C(=O)NN(C(=O)c2cc(C)cc(C)c2)C(C)C(C)(C)C)cc1 (centres unmarked) [RG-103451] | 3326 | 3865 | 0.884 | 314 nM
CCc1ccc(C(=O)NN(C(=O)c2cc(C)c(C)c(Cl)c2)C(C)(C)C)cc1 [RG-101863] | 1705 | 636 | 1.043 | 1000 nM
CC(=O)c1cccc(C(=O)NN(C(=O)c2cc(C)cc(C)c2)C(C)(C)C)c1C [RG-100814] | 2441 | 2165 | 1.157 | 1500 nM
COc1ccc(C(=O)NN(C(=O)c2ccc(F)cc2Cl)C(C)(C)C)cc1 [RG-101057] | 30 | 1008 | 0.648 | 6620 nM
COc1ccccc1C(=O)N(NC(=O)c1ccc2c(c1C)OCOC2)C(C)(C)C [RG-100216] | 53 | 1312 | 0.685 | 6970 nM
Cc1cc(C)cc(C(=O)N(NC(=O)c2cc3c(cc2Cl)OCO3)C(C)(C)C)c1 [RG-101171] | 395 | 1357 | 0.877 | 4020 nM
Cc1cc(C)cc(C(=O)N(NC(=O)c2ccc3c(c2Br)OCCO3)C(C)(C)C)c1 [RG-101340] | 1624 | 1549 | 0.964 | 240 nM
COc1cccc(C(=O)NN(C(=O)c2cc(C)ccc2Cl)C(C)(C)C)c1Cl [RG-101248] | 146 | 1033 | 0.790 | 5040 nM
COc1cccc(C(=O)NN(C(=O)c2cc(C)cc(Br)c2)C(C)(C)C)c1C [RG-101353] | 3583 | 3835 | 1.168 | 266 nM
Cc1cc(C)cc(C(=O)N(NC(=O)c2ccc3c(c2)COCO3)C(C)(C)C)c1 [RG-101016] | 308 | 1347 | 0.703 | 4200 nM
COc1cccc(C(=O)NN(C(=O)c2ccc(Cl)cc2F)C(C)(C)C)c1C [RG-100929] | 1080 | 988 | 0.770 | 1050 nM
Cc1cc(C)cc(C(=O)N(NC(=O)c2cc3c(cc2C)OCO3)C(C)(C)C)c1 [RG-101088] | 6 | 1743 | 1.159 | 9950 nM
CCc1ccc(C(=O)NN(C(=O)c2ccccc2[N+](=O)[O-])C(C)(C)C)cc1 [RG-101013] | 927 | 988 | 0.606 | 2140 nM
COc1cccc(C(=O)NN(C(=O)c2cccnc2Cl)C(C)(C)C)c1C [RG-100127] | 49 | 1239 | 0.689 | 6700 nM
COCc1c(OC)cccc1C(=O)NN(C(=O)c1cc(C)cc(C)c1)C(C)(C)C [RG-115117] |  | 221 |  | 
Cc1cc(C)cc(C(=O)N(NC(=O)c2ccc3c(c2)OC(C)O3)C(C)(C)C)c1 (centres unmarked) [RG-101511] | 1421 | 1207 | 0.762 | 714 nM
COc1cc(Cl)ccc1C(=O)N(NC(=O)c1cccc(OC)c1C)C(C)(C)C [RG-100848] | 1181 | 1151 | 0.765 | 322 nM

Structure (SMILES) | Fold Induction, 27-63 Assay, 3.3 uM | Fold Induction, 27-63 Assay, 33 uM | 27-63 assay Rel Max FI | EC50
COc1cc(C(=O)N(NC(=O)c2cccc(OC)c2C)C(C)(C)C)ccc1C [RG-100768] | 1738 | 1852 | 1.039 | 333 nM
Cc1cc(C)cc(C(=O)N(NC(=O)c2ccc3c(c2)CCCC3)C(C)(C)C)c1 [RG-101887] | 1142 | 1107 | 0.675 | 351 nM
CC(C)(C)N(NC(=O)c1c(F)cccc1F)C(=O)c1cc(Cl)cc(Cl)c1 [RG-100801] | 1341 | 1244 | 0.936 | 2080 nM
CCc1c(C(=O)NN(C(=O)c2cc(C)cc(C)c2)C(C)(C)C)ccc2c1OC(C)O2 (centres unmarked) [RG-101659] | 2283 | 1896 | 1.009 | 347 nM
CCc1c(OC)cccc1C(=O)NN(C(=O)c1cc(OC)cc(OC)c1)C(C)(C)C [RG-100778] | 2159 | 2312 | 1.342 | 678 nM
COc1cc(C(=O)NN(C(=O)c2cc(C)cc(C)c2)C(C)(C)C)ccc1C [RG-101585] | 154 | 1495 | 0.893 | 5060 nM
CCc1c(C(=O)NN(C(=O)c2cccc(C)c2)C(C)(C)C)ccc2c1OCCO2 [RG-101036] | 1721 | 1459 | 0.724 | 177 nM
COc1cc(C)ccc1C(=O)N(NC(=O)c1cccc(OC)c1C)C(C)(C)C [RG-100769] | 1595 | 1556 | 0.735 | 196 nM
CCc1cccc(C(=O)NN(C(=O)c2cc(C)cc(C)c2)C(C)(C)C)c1C [RG-101691] | 2249 | 2073 | 0.969 | 250 nM
CCc1c(OC)cccc1C(=O)NN(C(=O)c1ccc(Cl)cc1OC)C(C)(C)C [RG-101218] | 1097 | 1223 | 0.645 | 128 nM
COc1cccc(C(=O)NN(C(=O)c2cc(Cl)cc(Br)c2)C(C)(C)C)c1C [RG-101408] | 2445 | 1886 | 1.185 | 336 nM
CCc1ccc(C(=O)NN(C(=O)c2ccccc2CC)C(C)(C)C)cc1 [RG-102592] | 7 | 1265 | 0.798 | 7770 nM
Cc1cc(C)cc(C(=O)N(NC(=O)c2ccc(CC#N)cc2)C(C)(C)C)c1 [RG-100875] | 34 | 1592 | 1.004 | 8920 nM
CCc1ccc(C(=O)NN(C(=O)c2cc(C)cc(C)c2)C(C)(C)C)cc1Cl [RG-101864] | 1807 | 1464 | 0.750 | 343 nM
C=Cc1c(OC)cccc1C(=O)NN(C(=O)c1cc(C)cc(C)c1)C(C)(C)C [RG-102021] |  | 2951 |  | 
CC(C)(C)N(NC(=O)c1ccc2c(c1)OCO2)C(=O)c1ccc(F)cc1Cl [RG-101048] | 19 | 1453 | 0.708 | 8420 nM
Cc1cc(C)cc(C(=O)N(NC(=O)c2cccc(OC(F)(F)F)c2C)C(C)(C)C)c1 [RG-101692] | 1798 | 591 | 1.008 | 788 nM

From patent US9102648B1, “Bioavailable diacylhydrazine ligands for modulating the expression of exogenous genes via an ecdysone receptor complex” (Intrexon Corporation, priority 2003, dated 2015)
